Measured values from the supplement of paper PMC10307832.

Key:
Test in all cases: relative viability (nuclei count vs DMSO), 5 days (fraction); higher = more cells survive
Carfilzomib + Decitabine = compound: CC(C)C[C@H](NC(=O)[C@H](CCc1ccccc1)NC(=O)CN1CCOCC1)C(=O)N[C@@H](Cc1ccccc1)C(=O)N[C@@H](CC(C)C)C(=O)[C@@]1(C)CO1 [Carfilzomib] + Nc1ncn([C@H]2C[C@H](O)[C@@H](CO)O2)c(=O)n1 [Decitabine] (partner 2 µM)
In short: (§1)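 Relative viability was taken as the ratio of nuclei in treated wells to nuclei in vehicle wells. Lung cancer cell lines in 1536-well plates received compounds by pin tool one day after seeding, either one drug alone or a fixed anchor-drug dose plus five library-drug doses (not always all listed) in √10 steps. Nuclei were counted on 4× images after 5 days of treatment, and values are medians of duplicate plates.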

Carfilzomib + Tozasertib = compound: CC(C)C[C@H](NC(=O)[C@H](CCc1ccccc1)NC(=O)CN1CCOCC1)C(=O)N[C@@H](Cc1ccccc1)C(=O)N[C@@H](CC(C)C)C(=O)[C@@]1(C)CO1 [Carfilzomib] + Cc1cc(Nc2cc(N3CCN(C)CC3)nc(Sc3ccc(NC(=O)C4CC4)cc3)n2)n[nH]1 [Tozasertib] (partner 0.1 µM)
In short: as §1

Crizotinib + Linsitinib = compound: C[C@@H](Oc1cc(-c2cnn(C3CCNCC3)c2)cnc1N)c1c(Cl)ccc(F)c1Cl [Crizotinib] + C[C@]1(O)C[C@@H](c2nc(-c3ccc4ccc(-c5ccccc5)nc4c3)c3c(N)nccn32)C1 [Linsitinib] (partner 1 µM)
In short: as §1

Carfilzomib + OSI-027 = compound: CC(C)C[C@H](NC(=O)[C@H](CCc1ccccc1)NC(=O)CN1CCOCC1)C(=O)N[C@@H](Cc1ccccc1)C(=O)N[C@@H](CC(C)C)C(=O)[C@@]1(C)CO1 [Carfilzomib] + COc1cccc2cc(-c3nc([C@H]4CC[C@H](C(=O)O)CC4)n4ncnc(N)c34)[nH]c12 [OSI-027] (partner 0.5 µM)
In short: as §1

Cell Line | relative viability (Carfilzomib + Decitabine; first compound 0.003162 µM) | relative viability (Carfilzomib + Decitabine; first compound 0.01 µM) | relative viability (Carfilzomib + Decitabine; first compound 0.03162 µM) | relative viability (Carfilzomib + Decitabine; first compound 0.1 µM) | relative viability (Carfilzomib + Tozasertib; first compound 0.001 µM) | relative viability (Carfilzomib + Tozasertib; first compound 0.003162 µM) | relative viability (Carfilzomib + Tozasertib; first compound 0.01 µM) | relative viability (Carfilzomib + Tozasertib; first compound 0.03162 µM) | relative viability (Carfilzomib + Tozasertib; first compound 0.1 µM) | relative viability (Crizotinib + Linsitinib; first compound 0.01 µM) | relative viability (Crizotinib + Linsitinib; first compound 0.03162 µM) | relative viability (Crizotinib + Linsitinib; first compound 0.1 µM) | relative viability (Crizotinib + Linsitinib; first compound 0.3162 µM) | relative viability (Crizotinib + Linsitinib; first compound 1 µM) | relative viability (Carfilzomib + OSI-027; first compound 0.001 µM) | relative viability (Carfilzomib + OSI-027; first compound 0.003162 µM) | relative viability (Carfilzomib + OSI-027; first compound 0.01 µM) | relative viability (Carfilzomib + OSI-027; first compound 0.03162 µM) | relative viability (Carfilzomib + OSI-027; first compound 0.1 µM) | relative viability (Carfilzomib + Decitabine; first compound 0.001 µM)
NCI-H1395 | 0.756 | 0.602 | 0.441 | 0.319 | 0.746 | 0.743 | 0.696 | 0.505 | 0.304 | 1.07 | 1.17 | 0.944 | 1.01 | 1.03 | 0.526 | 0.734 | 0.642 | 0.5 | 0.309 | –
NCI-H1437 | 0.599 | 0.567 | 0.413 | 0.316 | 0.403 | 0.424 | 0.4 | 0.433 | 0.252 | 0.996 | – | 1.03 | 0.996 | 1.04 | 0.876 | 0.952 | 0.841 | 0.889 | 0.241 | 0.58
NCI-H1651 | 0.677 | 0.32 | 0.163 | 0.0885 | 0.626 | 0.805 | 0.559 | 0.126 | 0.0943 | 1.01 | 1.01 | 0.955 | 1.06 | 1.07 | 0.733 | 0.743 | 0.588 | 0.127 | 0.0922 | 0.467
NCI-H1666 | 0.782 | 0.751 | 0.704 | 0.403 | 0.667 | 0.551 | 0.58 | 0.523 | 0.312 | 0.825 | 0.877 | 0.774 | 0.871 | 0.665 | 0.807 | 0.87 | 0.955 | 0.749 | 0.383 | 0.707
NCI-H1734 | 0.517 | 0.48 | 0.474 | 0.136 | 0.275 | 0.289 | 0.266 | 0.153 | 0.0994 | 0.888 | 0.843 | 0.851 | – | 0.82 | 0.62 | 0.683 | 0.585 | 0.222 | 0.138 | 0.482
NCI-H1755 | 0.729 | 0.669 | 0.755 | 0.446 | 0.612 | 0.505 | 0.571 | 0.609 | 0.269 | 0.872 | – | 1.07 | 0.964 | 0.978 | 0.707 | 0.777 | 0.746 | 0.65 | 0.25 | 0.732
NCI-H1915 | 0.296 | 0.24 | 0.259 | 0.106 | 0.422 | 0.458 | 0.465 | 0.229 | 0.0764 | 1.02 | 1.09 | 1.1 | – | 1.1 | 0.596 | 0.654 | 0.59 | 0.457 | 0.0943 | 0.257
NCI-H1944 | 0.447 | 0.449 | 0.453 | 0.234 | 0.248 | 0.236 | 0.253 | 0.265 | 0.16 | 1.11 | 1.07 | 1.2 | 1.18 | 1.21 | 0.389 | 0.489 | 0.474 | 0.46 | 0.173 | 0.405
NCI-H1975 | 0.451 | 0.365 | 0.132 | 0.147 | – | 0.766 | 0.371 | 0.0617 | 0.0846 | 0.926 | 1.05 | 0.91 | 1.07 | 1.01 | – | 0.715 | 0.503 | 0.0875 | 0.106 | 0.378
NCI-H1993 | 0.589 | 0.658 | 0.541 | 0.461 | 0.563 | 0.571 | 0.59 | 0.597 | 0.423 | 0.711 | 0.729 | 0.71 | 0.76 | 0.71 | 0.573 | 0.569 | 0.576 | 0.443 | 0.459 | 0.542
NCI-H2009 | 0.391 | 0.401 | 0.268 | 0.0605 | 0.781 | 0.871 | 0.723 | 0.748 | 0.0938 | 1.17 | 1.17 | 1.24 | 1.17 | 1.17 | 0.758 | 0.778 | 0.631 | 0.111 | 0.0867 | 0.401
NCI-H2023 | 0.23 | 0.173 | 0.203 | 0.0666 | 0.433 | 0.399 | 0.352 | 0.285 | 0.0853 | 0.734 | 0.592 | 0.6 | 0.486 | 0.515 | 0.386 | 0.435 | 0.467 | 0.147 | 0.0792 | 0.184
NCI-H2085 | 0.608 | 0.584 | 0.421 | 0.297 | 0.825 | 0.828 | 0.786 | 0.269 | 0.385 | 0.8 | 1.03 | 1 | 0.926 | 0.836 | 0.59 | 0.799 | 0.64 | 0.264 | 0.27 | 0.589
NCI-H2087 | 0.247 | 0.179 | 0.0542 | 0.0427 | 0.264 | 0.236 | 0.239 | 0.0397 | 0.0474 | 0.966 | 0.976 | 0.942 | 0.92 | 1.07 | 0.593 | 0.636 | 0.302 | 0.0521 | 0.0683 | 0.214
NCI-H2126 | 0.625 | 0.552 | 0.597 | 0.555 | 0.904 | 0.926 | 0.936 | 0.777 | 0.408 | 0.73 | 0.724 | 0.706 | 0.691 | 0.717 | 0.721 | 0.707 | 0.76 | 0.726 | 0.331 | 0.627
NCI-H2347 | 0.608 | 0.66 | 0.594 | 0.389 | 0.54 | – | 0.619 | 0.493 | 0.151 | 0.913 | – | 1.03 | – | 0.993 | 0.415 | – | 0.366 | 0.26 | 0.217 | 0.625
